Where “and” joins values, the source holds several entries; their conditions need not be identical. Equal entries are not always repeated. Structures can show the parent of a compound that is named as a salt.
Legend:
Sprague-Dawley rats = assay: Antinociceptive activity, cold ethanol tail-flick test after oral gavage; type: in vivo, rat; conditions: for Analgesia (rat): oral gavage in sesame oil, 60 uM/kg, one dose, tail-flick at −20° C., cutoff 40 seconds; for analgesia in rats, in words: given orally, compared with equivalent dose of Nalbuphine (parent opioid)
[1] = Stability in human plasma; conditions: 37° C., acceptance criteria: NLT than 20% of hydrolysis after 4 hrs
[2] = Stability in the simulated gastro-intestinal fluid (sGIF); conditions: 0.5% pepsine in 0.1N aqueous HCl, 37° C.; acceptance: NLT 80% of the derivative still intact after 4 hrs
rats = assay: Randall-Selitto test after SC dose; type: in vivo, rat; conditions: NB-33.HCl 3.9 mg/kg; for Randall-Selitto (g), individual animal: NB.HCl 3 mg/kg; for Randall-Selitto (g), Mean: mean of 5, NB.HCl 3 mg/kg
From the text: FIG. 13 illustrate in the graphical form the results for 1310 NB-33, marked 1310, in comparison to the base NB compound NB, marked 1320 in FIG. 13.

| Compound | Analgesia (rat) (Sprague-Dawley rats) | Stable in plasma [1] | Stable in sGIF [2] | analgesia in rats, in words (Sprague-Dawley rats) | other results |
| --- | --- | --- | --- | --- | --- |
| CC=C(OC)C(=O)Oc1ccc2c3c1OC1C(O)CCC4(O)C(C2)N(CC2CCC2)CCC314 (stereo not shown) [NB-58, 3-(cyclobutylmethyl)-4a,7-dihydroxy-2,3,4,4a,5,6,7,7a-octahydro-1H-4,12-methanobenzofuro[3,2-e]isoquinolin-9-yl 2-methoxybut-2-enoate] | No | No | No |  |  |
| C/C=C/C=C/C(=O)Oc1ccc2c3c1OC1C(OC(C)=O)CCC4(O)C(C2)N(CC2CCC2)CCC314 (stereo not shown) [NB-76, 7-acetoxy-3-(cyclobutylmethyl)-4a-hydroxy-2,3,4,4a,5,6,7,7a-octahydro-1H-4,12-methanobenzofuro[3,2-e]isoquinolin-9-yl (2E,4E)-hexa-2,4-dienoate] | moderate | No | Yes |  |  |
| CC(C)C(=O)Oc1ccc2c3c1OC1C(O)CCC4(O)C(C2)N(CC2CCC2)CCC314 (stereo not shown) [NB-46, 3-(cyclobutylmethyl)-4a,7-dihydroxy-2,3,4,4a,5,6,7,7a-octahydro-1H-4,12-methanobenzofuro[3,2-e]isoquinolin-9-yl isobutyrate] | No | Yes | Yes |  |  |
| CC(C)=CCC/C(C)=C/CC/C(C)=C/COc1ccc2c3c1OC1C(O)CCC4(O)C(C2)N(CC2CCC2)CCC314 (stereo not shown) [NB-28, 3-(cyclobutylmethyl)-9-(((2E,6E)-3,7,11-trimethyldodeca-2,6,10-trien-1-yl)oxy)-1,2,3,4,5,6,7,7a-octahydro-4aH-4,12-methanobenzofuro[3,2-e]isoquinoline-4a,7-diol] | No | No | No |  |  |
| CC(C)=CCC/C(C)=C/C(=O)Oc1ccc2c3c1OC1C(O)CCC4(O)C(C2)N(CC2CCC2)CCC314 (stereo not shown) [NB-32, 3-(cyclobutylmethyl)-4a,7-dihydroxy-2,3,4,4a,5,6,7,7a-octahydro-1H-4,12-methanobenzofuro[3,2-e]isoquinolin-9-yl (E)-3,7-dimethylocta-2,6-dienoate] | Inactive | No | Yes | no analgesia |  |
| C=CCCCCCCCCC(=O)Oc1ccc2c3c1OC1C(O)CCC4(O)C(C2)N(CC2CCC2)CCC314 (stereo not shown) [NB-31, 3-(cyclobutylmethyl)-4a,7-dihydroxy-2,3,4,4a,5,6,7,7a-octahydro-1H-4,12-methanobenzofuro[3,2-e]isoquinolin-9-yl undec-10-enoate] | Inactive | No | Yes | no analgesia |  |
| CC(C)=CCC/C(C)=C/COc1ccc2c3c1OC1C(O)CCC4(O)C(C2)N(CC2CCC2)CCC314 (stereo not shown) [NB-20, (E)-3-(cyclobutylmethyl)-9-((3,7-dimethylocta-2,6-dien-1-yl)oxy)-1,2,3,4,5,6,7,7a-octahydro-4aH-4,12-methanobenzofuro[3,2-e]isoquinoline-4a,7-diol] | No | No | No |  |  |
| O=C(/C=C/c1ccccc1)Oc1ccc2c3c1OC1C(O)CCC4(O)C(C2)N(CC2CCC2)CCC314 (stereo not shown) [NB-78, 3-(cyclobutylmethyl)-4a,7-dihydroxy-2,3,4,4a,5,6,7,7a-octahydro-1H-4,12-methanobenzofuro[3,2-e]isoquinolin-9-yl cinnamate] | Inactive | No | Yes | no analgesia |  |
| Oc1ccc2c3c1O[C@H]1[C@@H](O)CC[C@@]4(O)[C@@H](C2)N(CC2CCC2)CC[C@]314 [NB.HCl] |  |  |  |  | Randall-Selitto (g), individual animal (rats; Post-dose 0.5 hr): 78 g and 89 g and 93 g and 107 g and 134 g; Randall-Selitto (g), Mean (rats; Post-dose 0.5 hr): 100.2 g; Randall-Selitto (g), individual animal (rats; Post-dose 1 hr): 63 g and 62 g and 92 g and 90 g and 96 g; Randall-Selitto (g), Mean (rats; Post-dose 1 hr): 80.6 g; Randall-Selitto (g), individual animal (rats; Post-dose 2 hr): 58 g and 71 g and 103 g and 69 g and 93 g; Randall-Selitto (g), Mean (rats; Post-dose 2 hr): 78.8 g; Randall-Selitto (g), individual animal (rats; Post-dose 4 hr): 64 g and 66 g and 93 g (2×) and 61 g; Randall-Selitto (g), Mean (rats; Post-dose 4 hr): 75.4 g; Randall-Selitto (g), individual animal (rats; Post-dose 6 hr): 50 g and 71 g and 82 g and 69 g and 85 g; Randall-Selitto (g), Mean (rats; Post-dose 6 hr): 71.4 g; Randall-Selitto (g), individual animal (rats; Pre-treatment (baseline)): 89 g and 92 g and 100 g and 80 g and 91 g; Randall-Selitto (g), Mean (rats; Pre-treatment (baseline)): 90.4 g |
| C/C=C(\C)C(=O)Oc1ccc2c3c1OC1C(O)CCC4(O)C(C2)N(CC2CCC2)CCC314 (stereo not shown) [NB-52, 3-(cyclobutylmethyl)-4a,7-dihydroxy-2,3,4,4a,5,6,7,7a-octahydro-1H-4,12-methanobenzofuro[3,2-e]isoquinolin-9-yl (E)-2-methylbut-2-enoate] | Inactive | No | Yes | no analgesia |  |
| CC(C)=CC(=O)Oc1ccc2c3c1OC1C(O)CCC4(O)C(C2)N(CC2CCC2)CCC314 (stereo not shown) [NB-51, 3-(cyclobutylmethyl)-4a,7-dihydroxy-2,3,4,4a,5,6,7,7a-octahydro-1H-4,12-methanobenzofuro[3,2-e]isoquinolin-9-yl 3-methylbut-2-enoate] | Inactive | No | Yes |  |  |

— patent US11186585B2 (priority 2018, dated 2021)
